Measurements taken from the supplement of paper PMC6045584.
± gives the standard deviation of the averaged measurements.

What was measured:
LENVATINIB = compound: COc1cc2nccc(Oc3ccc(NC(=O)NC4CC4)c(Cl)c3)c2cc1C(N)=O [LENVATINIB]; assay: surviving fraction relative to DMSO-only wells; higher = less growth inhibition; conditions: exposure time: 5 days
Method in brief: (§1)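 Surviving fraction is CellTiter-Glo luminescence divided by the median of wells given DMSO only. For this, log-phase tumour cell lines went into 384-well plates at 250–500 cells per well and, 24 hours later, into five days of continuous inhibitor exposure at 0.5, 1, 5, 10, 50, 100, 500 and 1000 nM. Lines were screened three times and retained only if replicate Pearson r >0.7 and median Z' >0.3.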

MK-1775 = compound: C=CCn1c(=O)c2cnc(Nc3ccc(N4CCN(C)CC4)cc3)nc2n1-c1cccc(C(C)(C)O)n1 [MK-1775]; assay: as above; conditions: exposure time: 5 days
Method in brief: as §1

| Test System | surviving fraction (LENVATINIB; 0.5 nM) | surviving fraction (LENVATINIB; 1 nM) | surviving fraction (LENVATINIB; 5 nM) | surviving fraction (LENVATINIB; 10 nM) | surviving fraction (LENVATINIB; 50 nM) | surviving fraction (LENVATINIB; 100 nM) | surviving fraction (LENVATINIB; 500 nM) | surviving fraction (LENVATINIB; 1000 nM) | surviving fraction (MK-1775; 0.5 nM) | surviving fraction (MK-1775; 1 nM) | surviving fraction (MK-1775; 5 nM) | surviving fraction (MK-1775; 10 nM) | surviving fraction (MK-1775; 50 nM) | surviving fraction (MK-1775; 100 nM) | surviving fraction (MK-1775; 500 nM) | surviving fraction (MK-1775; 1000 nM) |
| --- | --- | --- | --- | --- | --- | --- | --- | --- | --- | --- | --- | --- | --- | --- | --- | --- |
| G292 BONE | 0.99 ± 0.053 | 0.993 ± 0.054 | 1.02 ± 0.065 | 0.961 ± 0.019 | 0.838 ± 0.027 | 0.725 ± 0.013 | 0.33 ± 0.017 | 0.203 ± 0.0041 | 0.974 ± 0.034 | 0.946 ± 0.011 | 0.997 ± 0.018 | 1.03 ± 0.02 | 0.961 ± 0.032 | 0.821 ± 0.021 | 0.289 ± 0.014 | 0.216 ± 0.0088 |
| HCC38 BREAST | 1.03 ± 0.056 | 1.19 ± 0.23 | 1.24 ± 0.24 | 1.19 ± 0.091 | 1.35 ± 0.052 | 1.28 ± 0.054 | 1.18 ± 0.091 | 1.09 ± 0.17 | 1.33 ± 0.27 | 1.23 ± 0.048 | 1.33 ± 0.15 | 1.16 ± 0.072 | 0.773 ± 0.24 | 0.491 ± 0.065 | 0.0837 ± 0.006 | 0.069 ± 0.013 |
| HCC70 BREAST | 1.12 ± 0.07 | 1.136 ± 0.004 | 1.08 ± 0.067 | 1.15 ± 0.013 | 1.27 ± 0.1 | 1.13 ± 0.056 | 1.054 ± 0.0066 | 1.23 ± 0.09 | 1.03 ± 0.065 | 1.02 ± 0.067 | 1.09 ± 0.033 | 1 ± 0.11 | 0.815 ± 0.062 | 0.281 ± 0.021 | 0.073 ± 0.0076 | 0.0593 ± 0.012 |
| HMLE3 BREAST | 1.03 ± 0.019 | 0.951 ± 0.054 | 1.03 ± 0.052 | 1.05 ± 0.09 | 0.998 ± 0.12 | 0.905 ± 0.096 | 0.718 ± 0.029 | 0.658 ± 0.047 | 0.955 ± 0.013 | 0.985 ± 0.066 | 1.04 ± 0.071 | 0.999 ± 0.02 | 0.992 ± 0.065 | 0.888 ± 0.061 | 0.448 ± 0.058 | 0.168 ± 0.026 |
| HMT3552 BREAST | 1.03 | 0.978 | 1.01 | 0.921 | 0.975 | 1.02 | 0.944 | 0.893 | 1.05 | 1.02 | 0.977 | 1.01 | 0.542 | 0.142 | 0.069 | 0.072 |
| HS578T BREAST | 0.934 ± 0.11 | 1.16 ± 0.058 | 0.871 ± 0.17 | 0.974 ± 0.041 | 0.984 ± 0.078 | 0.91 ± 0.068 | 1.01 ± 0.1 | 0.871 ± 0.045 | 0.828 ± 0.085 | 0.84 ± 0.11 | 0.872 ± 0.087 | 0.782 ± 0.1 | 0.559 ± 0.091 | 0.354 ± 0.035 | 0.204 ± 0.0082 | 0.128 ± 0.0087 |
